Data: patent publication US5516779A, “17β-substituted-6-azasteroid derivatives useful as 5α-reductase inhibitors” (Merck & Co., Inc., priority 1994, dated 1996)

These molecules were tested against T1, 5α-reductase type 1 (Homo sapiens, UniProt P18405) (assay: Inhibition of 5α-reductase type 1 (conversion of testosterone to DHT, human scalp homogenate)). Conditions: not given.
T1 construct: Samples of human tissue were pulverized using a freezer mill and homogenized; from tissue; host or cells: human scalp tissue, crude nuclear pellet
T1 sequence (P18405 1-259): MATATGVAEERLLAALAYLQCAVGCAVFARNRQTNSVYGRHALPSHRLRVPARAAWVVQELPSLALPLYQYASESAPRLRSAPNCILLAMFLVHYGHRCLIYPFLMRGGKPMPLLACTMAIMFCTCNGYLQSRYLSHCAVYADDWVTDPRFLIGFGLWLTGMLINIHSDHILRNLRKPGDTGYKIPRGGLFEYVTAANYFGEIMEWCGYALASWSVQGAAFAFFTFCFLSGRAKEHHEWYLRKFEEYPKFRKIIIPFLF
Assay type: biochemical
Description: Samples of human tissue were pulverized using a freezer mill and homogenized in 40 mM potassium phosphate, pH 6.5, 5 mM magnesium sulfate, 25 mM potassium chloride, 1 mM phenylmethylsulfonyl fluoride, 1 mM dithiothreitol (DTT) containing 0.25 M sucrose using a Potter-Elvehjem homogenizer. A crude nuclear pellet was prepared by centrifugation of the homogenate at 1,500 x g for 15 min. The crude nuclear pellet was washed two times and resuspended in two volumes of buffer. Glycerol was added to the resuspended pellet to a final concentration of 20%. The enzyme suspension was frozen in aliquots at -80° C. The prostatic and scalp reductases were stable for at least 4 months when stored under these conditions.
The reaction mixture for the type 1 5α-reductase contained 40 mM potassium phosphate, pH 6.5, […] [7-^3 H]-testosterone, 1 mM dithiothreitol and 500 µM NADPH in a final volume of 100 μl. The reaction mixture for the type 2 5α-reductase contained 40 mM sodium citrate, pH 5.5, 0.3 mM [7-^3 H]-testosterone, 1 mM dithiothreitol and 500 µM NADPH in a final volume of 100 μl. Typically, the assay was initiated by the addition of 50-100 μg prostatic homogenate or 75-200 μg scalp homogenate and incubated at 37° C. After 10-50 min. the reaction was quenched by extraction with 250 μl of a mixture of 70% cyclohexane: 30% ethyl acetate containing 10 μl each DHT and T. The aqueous and organic layers were separated by centrifugation at 14,000 rpm in an Eppendorf microfuge. The organic layer was subjected to normal phase HPLC (10 cm Whatman partisil 5 silica column equilibrated in 1 ml/min 70% cyclohexane: 30% ethyl acetate; retention times: DHT, 6.8-7.2 min.; androstanediol, 7.6-8.0 min.; T, 9.1-9.7 min.). The HPLC system consisted of a Waters Model 680 Gradient System equipped with a Hitachi Model 655α autosampler, Applied Biosystems Model 757 -variable UV detector, and a Radiomatic Model A120 radioactivity analyzer. The conversion of T to DHT was monitored using the radioactivity flow detector by mixing the HPLC effluent with one volume of Flo Scint 1 (Radiomatic). Under the conditions described, the production of DHT was linear for at least 25 min. The only steroids observed with the human prostate and scalp preparations were T, DHT and androstanediol.
Compounds were dissolved in 100% ethanol. The compound to be tested was pre-incubated with the enzyme (either 5α-reductase type 1 or 2) prior to initiation by addition of substrate testosterone. IC50 values represent the concentration of inhibitor required to decrease enzyme conversion of testosterone to dihydrotestosterone by 50% of the control. IC50 values were determined using a 6 point titration where the concentration of the inhibitor was varied from 0.1 to 1000 nM. Representative compounds of this invention were tested in the above described assay for 5α-reductase type 1 and type 2 inhibition.

Row | Structure (SMILES) | IC50 [nM]
1 | CN1C[C@H]2[C@@H]3CC[C@H](O)[C@@]3(C)CC[C@@H]2[C@@]2(C)CCC(=O)C=C12 [XIII, 6-methyl-17-hydroxy-6-aza-androst-4-en-3-one] | < 100

Same assay, conditions: 5α-reductase type 1; pH 6.5; 6 point titration, 0.1 to 1000 nM; "under about"; read-out: IC50 for inhibition of the type 1 isozyme

Row | Structure (SMILES) | IC50 [nM]
2 | CN1C[C@@H]2[C@H](CC[C@]3(C)C(=O)CC[C@@H]23)[C@@]2(C)CCC(=O)C=C12 [VII, 6-methyl-6-aza-androst-4-en-3,17-dione] | < 100
3 | CCC[C@H]1CC[C@H]2[C@@H]3CN(C)C4=CC(=O)CC[C@]4(C)[C@H]3CC[C@]12C [X, 6-methyl-17-propyl-6-aza-androst-4-en-3-one] | < 100
4 | CN1C[C@H]2[C@@H]3CC[C@H](OC(=O)NC(C)(C)C)[C@@]3(C)CC[C@@H]2[C@@]2(C)CCC(=O)C=C12 [XIV, 6-methyl-17-t-butylcarbamoyloxy-6-aza-androst-4-en-3-one] | < 100

More lines, now with the values ahead:

Row | IC50 [nM] | Structure (SMILES)
5 | < 100 | CN1C[C@H]2[C@@H]3CCC[C@@]3(C)CC[C@@H]2[C@@]2(C)CCC(=O)C=C12 [XII, 6-methyl-6-aza-androst-4-en-3-one]
6 | < 100 | CC(C)CCC[C@@H](C)[C@H]1CC[C@H]2[C@@H]3CNC4=CC(=O)CC[C@]4(C)[C@H]3CC[C@]12C [XV, 6-aza-cholest-4-en-3-one]
7 | < 100 | CC(C)CCC[C@@H](C)[C@H]1CC[C@H]2[C@@H]3CN(C)C4=CC(=O)CC[C@]4(C)[C@H]3CC[C@]12C [XVI, 6-methyl-6-aza-cholest-4-en-3-one]
